Data published in article PMC12392035, “Development of Carborane-Based Benzothiazole Analogues as Cannabinoid Receptor Type 2 (CB2R) Ligands” (ACS Omega, 2025).

Columns and labels:
[1] = biological target: T1, human CB1R (cannabinoid receptor type 1) (Homo sapiens, UniProt P21554); test: competitive radioligand binding, CHO membranes; details: [3H]SR141716A displacement; mean of two values; read-out: KiCB1R (nM) mean ^a
T1 construct: gene CNR1; stably transfected in CHO cells; crude membrane homogenates
T1 sequence (P21554 whole entry): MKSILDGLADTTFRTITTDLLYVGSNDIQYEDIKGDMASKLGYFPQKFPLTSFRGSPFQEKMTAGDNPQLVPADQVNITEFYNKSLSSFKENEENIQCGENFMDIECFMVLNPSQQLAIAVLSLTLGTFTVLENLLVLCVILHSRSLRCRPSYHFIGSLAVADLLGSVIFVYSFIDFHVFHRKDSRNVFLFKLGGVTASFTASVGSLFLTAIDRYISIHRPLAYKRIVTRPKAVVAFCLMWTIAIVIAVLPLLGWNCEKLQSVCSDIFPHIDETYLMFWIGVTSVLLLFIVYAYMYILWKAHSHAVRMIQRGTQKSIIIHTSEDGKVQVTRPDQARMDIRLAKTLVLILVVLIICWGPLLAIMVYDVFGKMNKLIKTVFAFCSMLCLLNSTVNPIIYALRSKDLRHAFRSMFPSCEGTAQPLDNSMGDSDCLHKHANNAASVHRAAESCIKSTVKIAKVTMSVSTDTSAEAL
Description: competitive radioligand binding, CHO membranes on human CB1R (cannabinoid receptor type 1)

[2] = biological target: T2, human CB2R (cannabinoid receptor type 2) (Homo sapiens, UniProt P34972); test: competitive radioligand binding, CHO membranes; details: [3H]WIN55212-2 displacement; mean of two values; read-out: KiCB2R (nM) mean ^a
T2 construct: gene CNR2; stably transfected in CHO cells; crude membrane homogenates
T2 sequence (P34972 whole entry): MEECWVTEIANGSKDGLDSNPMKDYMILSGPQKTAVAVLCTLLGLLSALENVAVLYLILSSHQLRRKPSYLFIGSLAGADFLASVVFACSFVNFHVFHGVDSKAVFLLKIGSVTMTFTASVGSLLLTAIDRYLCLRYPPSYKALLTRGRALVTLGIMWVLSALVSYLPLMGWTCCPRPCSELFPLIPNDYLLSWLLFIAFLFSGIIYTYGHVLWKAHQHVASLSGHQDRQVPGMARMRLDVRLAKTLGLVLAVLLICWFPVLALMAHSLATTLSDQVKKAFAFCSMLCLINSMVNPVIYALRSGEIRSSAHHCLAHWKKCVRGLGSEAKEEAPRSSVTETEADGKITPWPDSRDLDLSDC
Description: competitive radioligand binding, CHO membranes on human CB2R (cannabinoid receptor type 2)

Substance: (Z)-N-(6-Methoxy-3-(2-methoxyethyl)-benzo[d]-thiazol-2(3H)-ylidene)(1,2-closo-dicarba-dodecaborane)-carboxamide [2o]
- Ki [1]: 76800 nM
- Ki [2]: 7.37 nM

Substance: (Z)-N-(6-Methoxy-3-(2-methoxyethyl)-benzo[d]-thiazol-2(3H)-ylidene)(1,7-closo-dicarba-dodecaborane)-carboxamide [2m]
- Ki [1]: 42300 nM
- Ki [2]: 2.47 nM

Substance: (Z)-N-(6-Methoxy-3-(2-methoxyethyl)-benzo[d]-thiazol-2(3H)-ylidene)(1,12-closo-dicarba-dodecaborane)-carboxamide [2p]
- Ki [1]: 8670 nM
- Ki [2]: 3.17 nM
